The values that follow come from PMC12750270, “Design and Preclinical Evaluation of a ^68Ga-Labeled Macrocyclic Peptide PET Probe Targeting Transferrin Receptor 1 in Colorectal Cancer” (ACS Omega, 2025).

For one series, the target named is T1, human TfR1 (Homo sapiens, UniProt P02786).
T1 construct: Fc; purchased Acro Biosystems TFR-H5264
In words: Surface plasmon resonance (SPR) binding affinity assay, Biacore 8K. The conditions noted are these: recombinant human TfR1-Fc immobilized, read-out: association rate constant (Ka). On the procedure: 1 (A) Synthetic scheme for^68 Ga-NOTA-TR01; (B) ESI-MS analysis of TR01; (C) Binding response (nm) between human TfR1 and varying concentrations (62.5–1,000 nM) of TR01; (D, E) Stability assessment of ^68 Ga-NOTA-TR01 in PBS and serum at 37 °C, measured by radio-HPLC.
SPR was employed to quantify the binding interaction between TR01 and TfR1.
The binding affinity of NOTA-TR01 to human TfR1 was evaluated by surface plasmon resonance (SPR) using a Biacore 8K system (Cytiva, USA) at Nanjing Genscript Probio. Recombinant human TfR1-Fc protein (TFR-H5264, Acro Biosystems) was immobilized on the sensor chip for kinetic analysis. The assay was performed under acidic conditions (pH 2.0) using a running buffer containing […]. Real-time binding data were collected at a 1:1 ligand-to-analyte ratio. The equilibrium dissociation constant (KD) was calculated by globally fitting the association and dissociation curves.

A short description of the next series: in vivo. Conditions: BALB/c nude, mouse, iv, total radioactivity. Also noted: species or system BALB/c nude mice. On the procedure: Three mice were included at each time point; %ID/g is the percentage of injected dose per gram of tissue.
Xenograft tumor models were established by subcutaneously injecting 1 × 10^7 LOVO or HT29 cells (in 100 μL PBS) into the right flank of 5–6-week-old BALB/c nude mice (purchased from Hangzhou Ziyuan Experimental Animal Technology). Tumor growth was monitored by caliper measurement, and imaging experiments were initiated once tumors reached a volume of 100–300 mm^3. All animal procedures were conducted in accordance with the institutional guidelines of the Animal Care and Use Committee at Soochow University.
A comparative biodistribution study was conducted in BALB/c nude mice (n = 3 per group), each intravenously injected with ^68Ga-NOTA-TR01 (1.85 ± 0.49 MBq, corresponding to ∼0.15 nmol peptide, in 100 μL saline). At 30-, 60-, and 120 min postinjection, mice were euthanized for terminal blood collection and organ harvesting. For blocking studies, an additional cohort was sacrificed at 60 min following coinjection with cold NOTA-TR01 (300 μg, ∼0.1 μmol per mouse). Excised tissues were perfused three times with PBS to remove residual blood, weighed, and their radioactivity quantified using a γ-counter. The biodistribution of the radiotracer was expressed as %ID/g. Tumor-to-background ratios (TBRs) were calculated to assess tracer specificity.

A short description of a further series: physchem. The class given is physicochemical. As for the experimental part: The molar activity was determined to be greater than 20 GBq/μmol. The log P was calculated as −1.709 ± 0.121 (n = 6), indicating a hydrophilic profile.
The lipophilicity of ^68Ga-NOTA-TR01 was determined via a standard octanol–water partition method. A solution of ^68Ga-NOTA-TR01 [5 μL, 0.74 MBq in phosphate-buffered saline (PBS)] was mixed with 0.5 mL n-octanol and 0.495 mL PBS. The biphasic system was vortexed for 3 min and centrifuged at 4,000 rpm for 5 min to achieve phase separation. Aliquots (100 μL) from each layer were sampled, and radioactivity was measured using a γ-counter. The log P was calculated using the formula: log P = log (cpm_octanol/cpm_PBS).

The next series has as its system LOVO cells (TfR1 low). Briefly: Cellular binding assay in LOVO cells. It counts as cell-based, human. The conditions noted are these: 37 °C, 37 kBq, γ-counter, triplicate. On the procedure: (§1) The percentage of added dose per 5 × 10^5 cells (%AD/5 × 10^5 cells) was as follows: at 30 min: 5.44 ± 0.12% (HT29) vs 2.63 ± 0.09% (LOVO), at 60 min: 6.36 ± 0.05% (HT29) vs 3.19 ± 0.23% (LOVO), at 120 min: 9.56 ± 0.17% (HT29) vs 4.51 ± 0.22% (LOVO).
(§2) The cell-specific binding of ^68Ga-NOTA-TR01 was evaluated in HT29 and LOVO cells. Cells were seeded in 12-well plates (5 × 10^5 cells/well) and cultured for 24 h under standard conditions (37 °C, 5% CO2). After washing with cold PBS, cells were incubated with 1 mL serum-free medium containing ^68Ga-NOTA-TR01 (37 kBq, ∼[…] corresponding to approximately 0.4 pmol of peptide). For blocking studies, parallel wells were pretreated with a 1,000-fold molar excess (3.3 nmol, 1 μg) of unlabeled TR01 peptide. Cellular binding was assessed at 0.5, 1, 2, and 4 h postincubation. Following incubation, cells were washed twice with ice-cold PBS, lysed in 1 M NaOH, and the associated radioactivity was measured using a γ-counter. Radioactivity data were corrected for decay using the ^68Ga decay constant (λ = 0.00876 min^– 1). Each condition was measured in triplicate for statistical accuracy.

Series [1] is classed as physicochemical. Conditions: 37 °C, 24 h, ∼3.7 MBq in 200 μL, radio-HPLC. On the procedure:
Collectively, these findings confirmed the suitability of ^68Ga-NOTA-TR01 for further preclinical applications.
[…] At each time point, radiochemical integrity was assessed via radio-HPLC by comparing the retention time of the incubated samples with that of a nonincubated control.

The subject of a further series is HT29 cells (TfR1 high). In words: Cellular binding/blocking assay in HT29 cells. The class given is cell-based, human. Conditions: for cellular binding: HT29, 37 °C, 37 kBq, γ-counter, triplicate. On the procedure: as §1, §2

Structures are written as SMILES. Where only a bound is given, the exact number is not on record here.

T1 sequence (P02786 whole entry): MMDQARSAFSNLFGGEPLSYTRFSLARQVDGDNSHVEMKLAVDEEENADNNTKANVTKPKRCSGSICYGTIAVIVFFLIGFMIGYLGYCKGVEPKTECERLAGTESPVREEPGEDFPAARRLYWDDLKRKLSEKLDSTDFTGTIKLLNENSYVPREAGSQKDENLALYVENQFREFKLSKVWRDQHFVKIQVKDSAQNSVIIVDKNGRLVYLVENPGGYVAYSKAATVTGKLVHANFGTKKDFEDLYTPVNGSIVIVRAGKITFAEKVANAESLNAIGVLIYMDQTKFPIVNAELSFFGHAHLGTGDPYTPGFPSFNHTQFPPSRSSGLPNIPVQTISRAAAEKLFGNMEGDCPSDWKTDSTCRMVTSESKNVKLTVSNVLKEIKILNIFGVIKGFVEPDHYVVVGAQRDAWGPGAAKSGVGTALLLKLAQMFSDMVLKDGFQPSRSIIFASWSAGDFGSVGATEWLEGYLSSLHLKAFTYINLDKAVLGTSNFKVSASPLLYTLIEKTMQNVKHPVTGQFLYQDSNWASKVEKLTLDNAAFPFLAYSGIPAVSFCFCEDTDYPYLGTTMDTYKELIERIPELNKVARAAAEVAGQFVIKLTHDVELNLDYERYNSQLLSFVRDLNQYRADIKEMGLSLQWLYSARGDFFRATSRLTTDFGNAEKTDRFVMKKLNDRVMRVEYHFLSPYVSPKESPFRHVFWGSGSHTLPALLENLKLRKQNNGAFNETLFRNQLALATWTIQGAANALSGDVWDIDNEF

Turning to `CC[C@H](C)[C@@H]1NC(=O)[C@H](Cc2ccc(O)cc2)NC(=O)[C@H](Cc2ccc(O)cc2)NC(=O)[C@H](CC(N)=O)NC(=O)[C@H](Cc2c[nH]c3ccccc23)NC(=O)[C@H](C(C)C)NC(=O)[C@H](Cc2ccccc2)NC(=O)[C@H](C(C)C)NC(=O)[C@H](C)NC(=O)CSC[C@@H](C(=O)NCCOCCOCCOCCOCCOCCOCCOCCOCCOCCOCCOCCOCCC(=O)N[C@@H](CCCCNC(=O)CN2CCN(CC(=O)O)CCN(CC(=O)O)CC2)C(=O)O)NC(=O)[C@H](Cc2ccc(O)cc2)N(C)C(=O)[C@H](Cc2ccc(O)cc2)NC(=O)[C@H](CCCNC(=N)N)NC(=O)[C@H](CCCNC(=N)N)NC(=O)[C@H]([C@@H](C)CC)NC1=O` [NOTA-TR01, cyclo(Ac-Ala-Val-Phe-Val-Trp-Asn-Tyr-Tyr-Ile-Ile-Arg-Arg-Tyr-NMe-Tyr-Cys)-PEG12-Lys-NOTA], the kon on human TfR1 worked out at 77300 M⁻¹ s⁻¹.

With `CC[C@H](C)[C@@H]1NC(=O)[C@H](Cc2ccc(O)cc2)NC(=O)[C@H](Cc2ccc(O)cc2)NC(=O)[C@H](CC(N)=O)NC(=O)[C@H](Cc2c[nH]c3ccccc23)NC(=O)[C@H](C(C)C)NC(=O)[C@H](Cc2ccccc2)NC(=O)[C@H](C(C)C)NC(=O)[C@H](C)NC(=O)CSC[C@@H](C(=O)NCCOCCOCCOCCOCCOCCOCCOCCOCCOCCOCCOCCOCCC(=O)N[C@@H](CCCCNC(=O)CN2CCN(CC(=O)O)CCN(CC(=O)O)CC2)C(=O)O)NC(=O)[C@H](Cc2ccc(O)cc2)N(C)C(=O)[C@H](Cc2ccc(O)cc2)NC(=O)[C@H](CCCNC(=N)N)NC(=O)[C@H](CCCNC(=N)N)NC(=O)[C@H]([C@@H](C)CC)NC1=O` [^68Ga-NOTA-TR01, metal not drawn], the tissue to tissue ratio at 2 h in the series “in vivo” was over 7. In addition, in “physchem”, the logD (usually the decadic logarithm of the distribution of all forms, ionised or not, between an organic phase and buffer at a given pH) was -1.71 ± 0.121. The cellular binding in the series with LOVO cells (TfR1 low) (30 min) is listed as 2.63 ± 0.09 %AD/5 × 10^5 cells; in the series with LOVO cells (TfR1 low) (60 min), 3.19 ± 0.23 %AD/5 × 10^5 cells; with LOVO cells (TfR1 low) (120 min), 4.51 ± 0.22 %AD/5 × 10^5 cells; with HT29 cells (TfR1 high) (30 min), 5.44 ± 0.12 %AD/5 × 10^5 cells; in the series with HT29 cells (TfR1 high) (60 min), 6.36 ± 0.05 %AD/5 × 10^5 cells; with HT29 cells (TfR1 high) (120 min) it was 9.56 ± 0.17 %AD/5 × 10^5 cells. Besides, the “radiochemical integrity after incubation in PBS” value in series [1] is over 98%. The “cellular binding, blocking group” value with HT29 cells (TfR1 high) (HT29, preincubation with 1,000-fold molar excess of unlabeled TR01, 30 min) was found to be 1.58 ± 0.06%; with HT29 cells (TfR1 high) (HT29, preincubation with 1,000-fold molar excess of unlabeled TR01, 60 min) it was 1.34 ± 0.29%; in the series on HT29 cells (TfR1 high) (HT29, preincubation with 1,000-fold molar excess of unlabeled TR01, 120 min) it was 1.27 ± 0.09%. Moreover, in the series with HT29 cells (TfR1 high) (HT29 cells, cold peptide), the “inhibition of cell binding by cold peptide” value is on record as “over 85%”.
